Tested on: MV-4-11 cells
Experiment: Gene expression microarray analysis (Affymetrix PrimeView) and GSEA
Assay type: cell-based, human
Parameters: RFU PODN (11730768_x_at) / Fold change /veh PODN (11730768_x_at) / RFU LINC00158 (11744669_a_at) / Fold change /veh LINC00158 (11744669_a_at) / RFU DUSP10 (11751237_a_at) / Fold change /veh DUSP10 (11751237_a_at) / RFU ID3 (11757404_x_at) / Fold change /veh ID3 (11757404_x_at) / RFU PLEKHG5 (11737974_s_at) / Fold change /veh PLEKHG5 (11737974_s_at) / RFU LRRC4B (11730491_at) / Fold change /veh LRRC4B (11730491_at) / RFU GIMAP4 (11747438_a_at) / Fold change /veh GIMAP4 (11747438_a_at) / RFU KRT8 (11758183_x_at) / Fold change /veh KRT8 (11758183_x_at) / RFU CNN1 (11734310_a_at) / Fold change /veh CNN1 (11734310_a_at) / RFU VPS37D (11726825_at) / Fold change /veh VPS37D (11726825_at) / RFU C10orf10 (11716522_x_at) / Fold change /veh C10orf10 (11716522_x_at) / RFU KIR2DL2 /// KIR2DL4 /// KIR2DL5A /// KIR2DL5B /// KIR2DS1 /// KIR2DS2 /// KIR2DS3 /// KIR2DS4 /// KIR3DL3 /// KIR3DL3 /// KIR3DS1 (11738374_at) / Fold change /veh KIR2DL2 /// KIR2DL4 /// KIR2DL5A /// KIR2DL5B /// KIR2DS1 /// KIR2DS2 /// KIR2DS3 /// KIR2DS4 /// KIR3DL3 /// KIR3DL3 /// KIR3DS1 (11738374_at) / RFU C1QL1 (11718748_at) / Fold change /veh C1QL1 (11718748_at) / RFU TMPRSS4 (11747572_a_at) / Fold change /veh TMPRSS4 (11747572_a_at) / RFU HAMP (11756126_x_at) / Fold change /veh HAMP (11756126_x_at) / RFU RNFT2 (11725882_a_at) / Fold change /veh RNFT2 (11725882_a_at) / RFU NR4A2 (11747474_a_at) / Fold change /veh NR4A2 (11747474_a_at) / RFU ABCC12 (11746883_a_at) / Fold change /veh ABCC12 (11746883_a_at) / RFU TMEM136 (11760407_x_at) / Fold change /veh TMEM136 (11760407_x_at) / RFU CLDN22 /// WWC2 (11732394_at) / Fold change /veh CLDN22 /// WWC2 (11732394_at) / RFU HLA-DPB1 (11760878_x_at) / Fold change /veh HLA-DPB1 (11760878_x_at) / RFU SPINT1 (11716480_a_at) / Fold change /veh SPINT1 (11716480_a_at) / RFU GAP43 (11754022_s_at) / Fold change /veh GAP43 (11754022_s_at) / RFU A4GNT (11735810_at) / Fold change /veh A4GNT (11735810_at) / RFU PRB3 (11715151_x_at) / Fold change /veh PRB3 (11715151_x_at) / RFU TUBB4B (11761932_at) / Fold change /veh TUBB4B (11761932_at) / RFU CAPN14 (11732068_a_at) / Fold change /veh CAPN14 (11732068_a_at) / RFU TMCC2 (11721928_a_at) / Fold change /veh TMCC2 (11721928_a_at) / RFU IRGQ (11745062_a_at) / Fold change /veh IRGQ (11745062_a_at) / RFU FAM174B (11720279_a_at) / Fold change /veh FAM174B (11720279_a_at) / RFU TMPRSS4 (11748680_a_at) / Fold change /veh TMPRSS4 (11748680_a_at) / RFU FAM212B (11763350_a_at) / Fold change /veh FAM212B (11763350_a_at) / RFU PLEKHG5 (11743358_a_at) / Fold change /veh PLEKHG5 (11743358_a_at) / RFU ZSCAN30 (11745921_a_at) / Fold change /veh ZSCAN30 (11745921_a_at) / RFU CMKLR1 (11741424_a_at) / Fold change /veh CMKLR1 (11741424_a_at) / RFU LOC101060620 /// MAPK8IP1 (11723275_at) / Fold change /veh LOC101060620 /// MAPK8IP1 (11723275_at) / RFU SPTSSB (11747773_x_at) / Fold change /veh SPTSSB (11747773_x_at) / RFU PRSS12 (11739890_at) / Fold change /veh PRSS12 (11739890_at) / RFU BIN1 (11741810_x_at) / Fold change /veh BIN1 (11741810_x_at) / RFU WNT11 (11732464_a_at) / Fold change /veh WNT11 (11732464_a_at) / RFU C10orf10 (11716521_a_at) / Fold change /veh C10orf10 (11716521_a_at) / RFU C5orf56 (11738089_at) / Fold change /veh C5orf56 (11738089_at) / RFU CYB561 (11721691_x_at) / Fold change /veh CYB561 (11721691_x_at) / RFU ANKRD19P (11752326_a_at) / Fold change /veh ANKRD19P (11752326_a_at) / RFU OR2T12 /// OR2T33 /// OR2T8 (11738714_s_at) / Fold change /veh OR2T12 /// OR2T33 /// OR2T8 (11738714_s_at) / RFU VCAN (11748164_a_at) / Fold change /veh VCAN (11748164_a_at) / RFU JSRP1 (11732532_at) / Fold change /veh JSRP1 (11732532_at) / RFU KRTAP10-11 (11738290_x_at) / Fold change /veh KRTAP10-11 (11738290_x_at) / RFU MYO3A (11730013_a_at) / Fold change /veh MYO3A (11730013_a_at) / RFU EBF3 (11725865_a_at) / Fold change /veh EBF3 (11725865_a_at) / RFU CAMK2N1 (11719241_x_at) / Fold change /veh CAMK2N1 (11719241_x_at) / RFU C5orf56 (11738088_a_at) / Fold change /veh C5orf56 (11738088_a_at) / RFU OLFML3 (11715873_a_at) / Fold change /veh OLFML3 (11715873_a_at) / RFU LOC100653217 /// NTM (11731650_a_at) / Fold change /veh LOC100653217 /// NTM (11731650_a_at) / RFU MAPK11 (11762145_a_at) / Fold change /veh MAPK11 (11762145_a_at) / RFU FIZ1 (11724087_x_at) / Fold change /veh FIZ1 (11724087_x_at) / RFU OASL (11726364_x_at) / Fold change /veh OASL (11726364_x_at) / RFU SOX15 (11748057_x_at) / Fold change /veh SOX15 (11748057_x_at) / RFU CD79A (11719716_a_at) / Fold change /veh CD79A (11719716_a_at) / RFU HIST1H1D (11736915_at) / Fold change /veh HIST1H1D (11736915_at) / RFU CASKIN2 (11723855_a_at) / Fold change /veh CASKIN2 (11723855_a_at) / RFU LOC730098 (11760151_x_at) / Fold change /veh LOC730098 (11760151_x_at) / RFU OR4N2 (11742367_at) / Fold change /veh OR4N2 (11742367_at) / RFU PRRT2 (11749266_a_at) / Fold change /veh PRRT2 (11749266_a_at) / RFU SNX32 (11753110_a_at) / Fold change /veh SNX32 (11753110_a_at) / RFU CDHR5 (11726645_a_at) / Fold change /veh CDHR5 (11726645_a_at) / RFU RCAN1 (11760418_a_at) / Fold change /veh RCAN1 (11760418_a_at) / RFU FAM167A (11723789_a_at) / Fold change /veh FAM167A (11723789_a_at) / RFU FAM26E (11764081_at) / Fold change /veh FAM26E (11764081_at) / RFU ISYNA1 (11749810_s_at) / Fold change /veh ISYNA1 (11749810_s_at) / RFU ACY1 (11761880_at) / Fold change /veh ACY1 (11761880_at) / RFU 11764098_at / Fold change /veh 11764098_at / RFU SAMD14 (11745864_x_at) / Fold change /veh SAMD14 (11745864_x_at) / RFU NPB (11741838_a_at) / Fold change /veh NPB (11741838_a_at) / RFU TMPRSS6 (11731388_a_at) / Fold change /veh TMPRSS6 (11731388_a_at) / RFU KRTAP10-2 (11738614_at) / Fold change /veh KRTAP10-2 (11738614_at) / RFU ARHGAP8 /// PRR5-ARHGAP8 (11727945_x_at) / Fold change /veh ARHGAP8 /// PRR5-ARHGAP8 (11727945_x_at) / RFU KRTAP5-7 /// NADSYN1 (11734609_at) / Fold change /veh KRTAP5-7 /// NADSYN1 (11734609_at) / RFU RASL12 (11751679_a_at) / Fold change /veh RASL12 (11751679_a_at) / RFU CDKN2B (11736163_a_at) / Fold change /veh CDKN2B (11736163_a_at) / RFU PRF1 (11729649_at) / Fold change /veh PRF1 (11729649_at) / RFU, ZNF638 /// ZNF638-IT1 / Fold change vs veh, ZNF638 /// ZNF638-IT1 / RFU, PANK3 / Fold change vs veh, PANK3 / RFU, SH3YL1 / Fold change vs veh, SH3YL1 / RFU, ZEB2 / Fold change vs veh, ZEB2 / RFU, NRIP1 / Fold change vs veh, NRIP1 / RFU, PTTG1IP / Fold change vs veh, PTTG1IP / RFU, CAPN2 / Fold change vs veh, CAPN2 / RFU, MED14 / Fold change vs veh, MED14 / RFU, SNORA58 / Fold change vs veh, SNORA58 / RFU, C1orf63 / Fold change vs veh, C1orf63 / RFU, LRRFIP1 / Fold change vs veh, LRRFIP1 / RFU, NDUFAF7 / Fold change vs veh, NDUFAF7 / RFU, SLC12A2 / Fold change vs veh, SLC12A2 / RFU, IBTK / Fold change vs veh, IBTK / RFU, ESF1 / Fold change vs veh, ESF1 / Fold change vs veh, TMEM50B / RFU, TAOK1 / Fold change vs veh, TAOK1 / RFU, ACBD3 / Fold change vs veh, ACBD3 / RFU, TMA16 / Fold change vs veh, TMA16 / RFU, RWDD3 / Fold change vs veh, RWDD3 / RFU, BCAT1 / Fold change vs veh, BCAT1 / RFU, EDEM3 / Fold change vs veh, EDEM3 / RFU, TMEM33 / Fold change vs veh, TMEM33 / RFU, WDR75 / Fold change vs veh, WDR75 / RFU, AHCTF1 / Fold change vs veh, AHCTF1 / RFU, TFRC / Fold change vs veh, TFRC / RFU, ZDHHC17 / Fold change vs veh, ZDHHC17 / RFU, NOM1 / Fold change vs veh, NOM1 / RFU, ARL8B / Fold change vs veh, ARL8B / RFU, ZBTB11 / Fold change vs veh, ZBTB11 / RFU, TAMM41 / Fold change vs veh, TAMM41 / RFU, KIAA1704 /// LOC100996395 / Fold change vs veh, KIAA1704 /// LOC100996395 / RFU, ING1 / Fold change vs veh, ING1 / RFU, TRMT61B / Fold change vs veh, TRMT61B / RFU, FUBP3 / Fold change vs veh, FUBP3 / RFU, TP53 / Fold change vs veh, TP53 / RFU, TNKS2 / Fold change vs veh, TNKS2 / RFU, ZFP14 / Fold change vs veh, ZFP14 / RFU, ACTR2 / Fold change vs veh, ACTR2 / RFU, PPP3R1 / Fold change vs veh, PPP3R1 / RFU, PIK3R1 / Fold change vs veh, PIK3R1 / RFU, HNRNPA1 / Fold change vs veh, HNRNPA1 / RFU, RNF170 / Fold change vs veh, RNF170 / RFU, ZNF28 / Fold change vs veh, ZNF28 / RFU, RNGTT / Fold change vs veh, RNGTT / RFU, OGT / Fold change vs veh, OGT / RFU, BRD1 / Fold change vs veh, BRD1 / RFU, MARS / Fold change vs veh, MARS / RFU, ZNF655 / Fold change vs veh, ZNF655 / RFU, FAHD1 / Fold change vs veh, FAHD1 / RFU, BDP1 / Fold change vs veh, BDP1 / RFU, LRRCC1 / Fold change vs veh, LRRCC1 / RFU, ARID1A / Fold change vs veh, ARID1A / RFU, ZNF146 / Fold change vs veh, ZNF146 / RFU, ZNF330 / Fold change vs veh, ZNF330 / RFU, GPN3 / Fold change vs veh, GPN3 / RFU, C9orf123 / Fold change vs veh, C9orf123 / RFU, N4BP2L2 / Fold change vs veh, N4BP2L2 / RFU, ARFIP1 / Fold change vs veh, ARFIP1 / RFU, FAM179B / Fold change vs veh, FAM179B / RFU, BCL10 / Fold change vs veh, BCL10 / RFU, UHRF1BP1L / Fold change vs veh, UHRF1BP1L / RFU, BET1 / Fold change vs veh, BET1 / RFU, CNOT2 / Fold change vs veh, CNOT2 / RFU, ZNF268 / Fold change vs veh, ZNF268 / Fold change vs veh, ZNF507 / RFU, DGCR2 / Fold change vs veh, DGCR2 / RFU, WDSUB1 / Fold change vs veh, WDSUB1 / Fold change vs veh, HSP90B1 /// MIR3652 / RFU, ADSS / Fold change vs veh, ADSS / RFU, GK / Fold change vs veh, GK / RFU, ZNF148 / Fold change vs veh, ZNF148 / RFU, TAF9 / Fold change vs veh, TAF9 / RFU, SLC1A5 / Fold change vs veh, SLC1A5 / RFU, SLMO2 / Fold change vs veh, SLMO2 / RFU, ABCC4 / Fold change vs veh, ABCC4 / RFU, LOC101060439 /// RAP1B / Fold change vs veh, LOC101060439 /// RAP1B / RFU, RFX7 / Fold change vs veh, RFX7 / RFU, GTPBP10 / Fold change vs veh, GTPBP10 / RFU, CNEP1R1 / Fold change vs veh, CNEP1R1 / RFU, BIVM-ERCC5 /// ERCC5 / Fold change vs veh, BIVM-ERCC5 /// ERCC5 / RFU, ILF3 / Fold change vs veh, ILF3 / RFU 11762660_at / Fold change /veh 11762660_at / RFU VCAN (11757783_s_at) / Fold change /veh VCAN (11757783_s_at) / RFU DDX43 (11728927_at) / Fold change /veh DDX43 (11728927_at) / RFU KRT8 (11758188_x_at) / Fold change /veh KRT8 (11758188_x_at) / RFU NKD1 (11759106_at) / Fold change /veh NKD1 (11759106_at) / RFU SRD5A1 (11742802_a_at) / Fold change /veh SRD5A1 (11742802_a_at) / RFU TPSAB1 /// TPSB2 (11721975_s_at) / Fold change /veh TPSAB1 /// TPSB2 (11721975_s_at) / RFU GSTM3 (11746129_a_at) / Fold change /veh GSTM3 (11746129_a_at) / RFU IL23R (11737362_x_at) / Fold change /veh IL23R (11737362_x_at) / RFU TMEM51 (11727254_a_at) / Fold change /veh TMEM51 (11727254_a_at) / RFU PIWIL2 (11732686_x_at) / Fold change /veh PIWIL2 (11732686_x_at) / RFU ORM1 (11744905_x_at) / Fold change /veh ORM1 (11744905_x_at) / RFU CCDC152 (11743942_at) / Fold change /veh CCDC152 (11743942_at) / RFU ECM1 (11717891_a_at) / Fold change /veh ECM1 (11717891_a_at) / RFU IL23R (11748794_a_at) / Fold change /veh IL23R (11748794_a_at) / RFU TNFAIP8L3 (11732012_x_at) / Fold change /veh TNFAIP8L3 (11732012_x_at) / RFU MBOAT4 (11741988_at) / Fold change /veh MBOAT4 (11741988_at) / RFU 11764193_at / Fold change /veh 11764193_at / RFU TMEM53 (11763286_at) / Fold change /veh TMEM53 (11763286_at) / RFU MAGEB2 (11727129_at) / Fold change /veh MAGEB2 (11727129_at) / RFU TMEM200A (11744735_a_at) / Fold change /veh TMEM200A (11744735_a_at) / RFU CCDC152 (11751479_a_at) / Fold change /veh CCDC152 (11751479_a_at) / RFU FAM211A (11726209_a_at) / Fold change /veh FAM211A (11726209_a_at) / RFU RGS16 (11746705_a_at) / Fold change /veh RGS16 (11746705_a_at) / RFU VCAN (11755009_s_at) / Fold change /veh VCAN (11755009_s_at) / RFU RHOB (11743442_s_at) / Fold change /veh RHOB (11743442_s_at) / RFU RGS16 (11720943_a_at) / Fold change /veh RGS16 (11720943_a_at) / RFU RGS16 (11720944_at) / Fold change /veh RGS16 (11720944_at) / RFU, VPS4B / Fold change vs veh, VPS4B / RFU, CREB1 / Fold change vs veh, CREB1 / RFU, DNAJC13 / Fold change vs veh, DNAJC13 / RFU, GNAQ / Fold change vs veh, GNAQ / RFU, CDK5R1 / Fold change vs veh, CDK5R1 / RFU, ZRANB3 / Fold change vs veh, ZRANB3 / RFU, CUL4A / Fold change vs veh, CUL4A / RFU, CCNY / Fold change vs veh, CCNY / RFU, UFL1 / Fold change vs veh, UFL1 / RFU, COG3 / Fold change vs veh, COG3 / RFU, DIAPH2 / Fold change vs veh, DIAPH2 / RFU, SKA2 / Fold change vs veh, SKA2 / RFU, AFF3 / Fold change vs veh, AFF3 / RFU, LMF1 / Fold change vs veh, LMF1 / RFU, IPO11 / Fold change vs veh, IPO11 / RFU, DFFB / Fold change vs veh, DFFB / RFU, FOXP1 / Fold change vs veh, FOXP1 / RFU, CARD8 / Fold change vs veh, CARD8 / RFU, STRN3 / Fold change vs veh, STRN3 / RFU, ADK / Fold change vs veh, ADK / RFU, RASSF2 / Fold change vs veh, RASSF2 / RFU, WIPF1 / Fold change vs veh, WIPF1 / RFU, LARP1B / Fold change vs veh, LARP1B / RFU, RASA1 / Fold change vs veh, RASA1 / RFU, RB1 / Fold change vs veh, RB1 / RFU, PPFIA1 / Fold change vs veh, PPFIA1 / RFU, MAT2A / Fold change vs veh, MAT2A / RFU, CCT5 / Fold change vs veh, CCT5 / RFU, WDR92 / Fold change vs veh, WDR92 / RFU, CUX1 / Fold change vs veh, CUX1 / RFU, TTC7A / Fold change vs veh, TTC7A / RFU, TMEM135 / Fold change vs veh, TMEM135 / RFU, DEPTOR / Fold change vs veh, DEPTOR / RFU, CPM / Fold change vs veh, CPM / RFU, DNAJB6 / Fold change vs veh, DNAJB6 / RFU, CACNA2D3 / Fold change vs veh, CACNA2D3 / RFU, DTX4 / Fold change vs veh, DTX4 / RFU, TFCP2 / Fold change vs veh, TFCP2 / RFU, GMCL1 /// GMCL1P1 / Fold change vs veh, GMCL1 /// GMCL1P1 / RFU, AEBP2 / Fold change vs veh, AEBP2 / RFU, SNHG1 /// SNORD22 /// SNORD25 /// SNORD26 /// SNORD27 /// SNORD28 /// SNORD29 /// SNORD31 / Fold change vs veh, SNHG1 /// SNORD22 /// SNORD25 /// SNORD26 /// SNORD27 /// SNORD28 /// SNORD29 /// SNORD31 / Fold change (Aza/veh), C12orf56 (ProbeSet 11735607_a_at) / Fold change (ACY-1035/veh), C12orf56 (ProbeSet 11735607_a_at) / Fold change (Aza/veh), FGFR1OP (ProbeSet 11751329_s_at) / Fold change (ACY-1035/veh), FGFR1OP (ProbeSet 11751329_s_at) / Fold change (Aza/veh), VPS36 (ProbeSet 11739960_a_at) / Fold change (ACY-1035/veh), VPS36 (ProbeSet 11739960_a_at) / RFU SYPL1 (11715823_x_at) / Fold change /veh SYPL1 (11715823_x_at) / RFU IGFBP7 (11715501_s_at) / Fold change /veh IGFBP7 (11715501_s_at) / RFU REEP3 (11722064_at) / Fold change /veh REEP3 (11722064_at) / RFU IGLL1 (11728026_x_at) / Fold change /veh IGLL1 (11728026_x_at): dose or concentration left out as unconfirmed
Settings: MV-4-11 cells, 48 hours

## Nc1ncn([C@@H]2O[C@H](CO)[C@@H](O)[C@H]2O)c(=O)n1 [azacitidine]
  Fold change /veh KRT8 (11758183_x_at): 1.18

— paper PMC5218480 (PLoS ONE, 2017)
